Laboratory results published in BigSolDB 2.1.

COc1ccc(Cl)cc1C(=O)NCCc1ccc(S(=O)(=O)NC(=O)NC2CCCCC2)cc1
solubility (mole fraction)
Conditions | 283.15 K | 288.15 K | 293.15 K | 298.15 K | 303.15 K | 308.15 K | 313.15 K | 318.15 K | 323.15 K
in MIBK | 0.000198 | 0.000227 | 0.000276 | 0.000336 | 0.000426 | 0.000529 | 0.000655 | 0.000789 | 0.000908
in acetone | 0.000471 | 0.000568 | 0.00069 | 0.000894 | 0.00109 | 0.00134 | 0.00171 | 0.00214 | 0.00261
in acetonitrile | 5.25e-05 | 7.15e-05 | 9.85e-05 | 0.000131 | 0.000163 | 0.000225 | 0.000316 | 0.000418 | 0.000558
in ethanol | 0.000108 | 0.00015 | 0.000188 | 0.000249 | 0.000316 | 0.000412 | 0.000591 | 0.000865 | 0.00116
in ethyl acetate | 9.01e-05 | 0.000121 | 0.00015 | 0.000181 | 0.000226 | 0.00029 | 0.000375 | 0.000486 | 0.000627
in isopropanol | 7.55e-05 | 8.89e-05 | 0.000126 | 0.000162 | 0.000207 | 0.000271 | 0.000401 | 0.000619 | 0.000934
in methanol | 0.000124 | 0.000165 | 0.00021 | 0.000284 | 0.000355 | 0.000488 | 0.000695 | 0.00105 | 0.00143
in methyl acetate | 0.000127 | 0.000164 | 0.000202 | 0.000246 | 0.000296 | 0.000372 | 0.000492 | 0.000629 | 0.000769
in n-butanol | 0.000186 | 0.000223 | 0.000242 | 0.000284 | 0.000334 | 0.000445 | 0.000646 | 0.000922 | 0.00135
in n-propanol | 0.0001 | 0.000125 | 0.000163 | 0.000225 | 0.000286 | 0.000381 | 0.000538 | 0.000729 | 0.000983
in sec-butanol | 6.35e-05 | 7.97e-05 | 0.000104 | 0.000141 | 0.000184 | 0.000248 | 0.000365 | 0.000568 | 0.000887
